Experiments:
P 388 leukemia cells = assay: Antitumor activity, P 388 leukemia cells mixed with compound and transplanted subcutaneously, tumor weight; assay type: in vivo; conditions: 1×10^6 P 388 cells mixed with 0.1 g of compound, s.c., CDF1 mice; tumor weight on 10th day
Description: Antitumor activity of 1,3-dioctyloxypropane-2-yl 2-thiazolioethyl phosphate (Example 3)
P 388 leukemia cells (1×10^6 cells) were mixed with 0.1 g of the compound of Example 3, and transplanted subcutaneously to each of CDF1 mice (a group consisting of 5 mice).

sarcoma 180 cells [1] = assay: Antitumor activity, intraperitoneal sarcoma 180, 9 consecutive days, life span; assay type: in vivo; conditions: 25 mg/kg i.p., 4×10^5 sarcoma 180 cells i.p., ICR mice
Description: Antitumor activity of 1,3-diheptyloxypropane-2-yl 2-trimethylammonioethyl phosphate (Example 10)
Sarcoma 180 cells (4×10^5 cells per mouse) were transplanted intraperitoneally to ICR mice (a group consisting of 5 mice). The compound of Example 10 was administered intraperitoneally to the mice at the single dose rate of 25 mg/kg for 9 consecutive days from the day following transplantation.

platelet = conditions: Biochemical and Biophysical Research Communications, 99, 183 (1981); cited from earlier work
[2] = rat, in vivo, iv
Description: Male 7-week aged Sprague-Dawley rats (weighing 200 to 290 g) were anesthetized by intraperitoneal administration of 60 mg/kg of pentobarbital sodium, and the left carotids (for the measurement of blood pressure) and left femoral veins (for the intravenous administration) were cannulated.

sarcoma 180 cells [3] = assay: Antitumor activity (pre-administration), intraperitoneal sarcoma 180, life span; assay type: in vivo; conditions: 1 mg/mouse i.p., 4 days before i.p. transplantation of 1×10^5 sarcoma 180 cells; ICR mice
Description: Antitumor activity (pre-administration) of 1,3-dioctyloxypropane-2-yl 2-trimethylammonioethyl phosphate (Example 1)
A 1 mg/mouse of the compound of Example 1 was admixed with physiological saline, and administered intraperitoneally to ICR mice (a group consisting of 5 mice). Four days later, 1×10^5 sarcoma 180 cells per mouse was transplanted intraperitoneally to each of the mice.

Piricularia oryzae = assay: microbe, parasite or virus in culture; assay type: cell-based
sarcoma 180 cells [4] = assay: Antitumor activity, subcutaneous sarcoma 180, intraperitoneal administration, tumor weight; assay type: in vivo; conditions: 0.2 mg/mouse i.p., 13 times, 2nd to 20th day; tumor weight on 21st day; sarcoma 180 s.c., ICR mice
Description: (§1) Antitumor activity of 1,3-dioctyloxypropane-2-yl 2-trimethylammonioethyl phosphate (Example 1)
Sarcoma 180 cells (1×10^6 cells) were transplanted subcutaneously to each of ICR mice (a group consisting of 5 mice). The compound of Example 1 was administered intraperitoneally to the mice at the single dose rate of 0.2 mg/mouse 13 times over the period of from the 2nd day to the 20th day. On the 21th day, the mice were anatomized, and the weight of tumors was measured.

Penicilium citrinum = assay: Antifungal action, MIC by serial dilution technique; assay type: cell-based; conditions: 1% glucose bouillon agar
sarcoma 180 cells [5] = assay: Antitumor activity, subcutaneous sarcoma 180, intravenous administration, tumor weight; assay type: in vivo; conditions: 0.06 mg/mouse i.v., 9 times, 7th to 20th day; tumor weight on 21st day; sarcoma 180 s.c., ICR mice
Description: as §1
Sarcoma 180 cells (1×10^6 cells) were transplanted subcutaneously to each of ICR mice (a group consisting of 5 mice). The compound of Example 1 was injected intravenously to the mice at the single dose rate of 0.06 mg/mouse 9 times over the period of from the 7th day after the transplantation to the 20th day. On the 21th day, the mice were anatomized, and the weight of tumors was measured.

Saccharomyces cerevisiae = assay: Antifungal action, MIC by serial dilution technique; assay type: cell-based; conditions: 1% glucose bouillon agar
Cercospora beticola = assay: as above; assay type: cell-based; conditions: 1% glucose bouillon agar
Description: (§2) Antifungal action of 1,3-dioctyloxypropane-2-yl 2-trimethylammonioethyl phosphate (Example 1)
(§3) Using typical fungi, the minimal inhibition concentrations (MIC) were determined with the compound of Example 1 by the serial dilution technique on a 1% glucose bouillon agar culture medium.

Botrytis cinerea = assay: as above; assay type: cell-based; conditions: 1% glucose bouillon agar
Description: as §2, §3

Diaporthe citri = assay: as above; assay type: cell-based; conditions: 1% glucose bouillon agar
Description: as §2, §3

Cladosporium herbarum = assay: as above; assay type: cell-based; conditions: 1% glucose bouillon agar
Description: as §2, §3

Elsinoe fawcetti = assay: as above; assay type: cell-based; conditions: 1% glucose bouillon agar
Description: as §2, §3

Helminthosporium oryzae = assay: as above; assay type: cell-based; conditions: Bipolaris oryzae
Mucor spinescens = assay: as above; assay type: cell-based; conditions: 1% glucose bouillon agar
sarcoma 180 cells [6] = assay: Antitumor activity (simultaneous administration), intraperitoneal sarcoma 180, life span; assay type: in vivo, ICR mice; conditions: for rate of life prolongation against the control group: 1 mg/mouse i.p. after i.p. transplantation of 1×10^5 sarcoma 180 cells, ICR mice
Description: Antitumor activity (simultaneous administration) of 1,3-dioctyloxypropane-2-yl 2-trimethylammonioethyl phosphate (Example 1)
Sarcoma 180 cells (1×10^5 cells per mouse) was transplanted intraperitoneally to ICR mice (a group consisting of 5 mice). Subsequently, the compound of Example 1 (1 mg/mouse) was dissolved in physiological saline, and administered intraperitoneally to each of the mice. In the group given the drug compound, two mice survived 60 days, and the rate of life prolongation against the control group not given the drug compound was 458.

sarcoma 180 cells [7] = assay: Antitumor activity, intraperitoneal sarcoma 180, three administrations, life span; assay type: in vivo, ICR mice
Description: ICR mice (5 animals per group) were intraperitoneally inoculated with 1×10^5 sarcoma 180 cells per mouse. […] The life span prolonging ratio as compared with the control (no drug treatment) group was 198, and 1 animal survived on day 60.

MM46 cells = assay: Antitumor activity, intraperitoneal MM46, administration before and after inoculation, survival; assay type: in vivo; conditions: 5 animals per group; 0.25 mg/mouse i.p., 4 days before and 4 days after 1×10^4 MM46 cells i.p.; C3H/He mice; controls all died within 19 days
Description: Antitumor activity of the compound of Example 9
The compound of Example 9 was intraperitoneally administered to C3H/He mice (5 animals per group) in a dose of 0.25 mg/mouse for 4 consecutive days.
On the 5th day, 1×10^4 MM46 cells were intraperitoneally inoculated into each mouse, and the compound of Example 9 was again administered intraperitoneally to the mice in a dose of 0.25 mg/mouse for 4 days starting from day 1 after inoculation.
The mice in the control group all died within 19 days after tumor implantation, whereas, in the drug-treated group, 3 animals survived on day 60.

Meth A cells = assay: Antitumor activity, subcutaneous Meth A, administration on the transplanted portion, tumor weight; assay type: in vivo; conditions: 0.25 mg/mouse on the transplanted portion once a day for 4 days; Meth A s.c., CDF1 mice; ten days later
Description: Antitumor activity of 1,3-dinonyloxypropane-2-yl 2-trimethylammonioethyl phosphate (Example 9)
Meth A cells (1×10^6 cells per mouse) were transplanted subcutaneously to CDF1 mice (a group consisting of 5 mice). On the other hand, a solution of 0.25 mg/mouse of the compound of Example 9 in 0.05 ml of physilogical saline was given to each of the mice on the portion transplanted with the cells once a day for 4 consecutive days from the 1st day following the transplantation. Ten days later, the tumor tissues were removed, and the weight of tumors was measured.

## CCCCCCCCOCC(COCCCCCCCC)OP(=O)([O-])OCC[n+]1ccsc1 [Example 3, 1,3-Dioctyloxypropane-2-yl 2-thiazolioethyl phosphate]
P 388 leukemia cells
  growth inhibition rate of tumor: 83%

## CCCCCCCOCC(COCCCCCCC)OP(=O)([O-])OCC[N+](C)(C)C [Example 10, 1,3-Diheptyloxypropane-2-yl 2-trimethylammonioethyl phosphate]
Sarcoma 180 cells [1]
  rate of life span prolongation against the control group (T/C): 295

## CCCCCCCCCCCCCCCCCCOCC(COP(=O)([O-])OCC[N+](C)(C)C)OC (stereo not drawn) [compound (XI)]
platelet
  platelet aggregating action: has platelet aggregating action
[2]
  blood pressure lowering action (in words): possesses blood-pressure lowering action

## CCCCCCCCOCC(COCCCCCCCC)OP(=O)([O-])OCC[N+](C)(C)C [Example 1, 1,3-Dioctyloxypropane-2-yl 2-trimethylammonioethyl phosphate]
Sarcoma 180 cells [3]
  rate of life span prolongation against the control group (T/C): 225
Piricularia oryzae
  MIC: 6.25 µg/mL
Sarcoma 180 cells [4]
  growth inhibition rate of tumor: 54%
Penicilium citrinum
  MIC: 12.5 µg/mL
Sarcoma 180 cells [5]
  growth inhibition rate of tumor: 52%
Saccharomyces cerevisiae
  MIC: 25 µg/mL
Cercospora beticola
  MIC: 6.25 µg/mL
Botrytis cinerea
  MIC: 3.12 µg/mL
Diaporthe citri
  MIC: 6.25 µg/mL
Cladosporium herbarum
  MIC: 6.25 µg/mL
Elsinoe fawcetti
  MIC: 3.12 µg/mL
Helminthosporium oryzae
  MIC: 3.12 µg/mL
Mucor spinescens
  MIC: 12.5 µg/mL
Sarcoma 180 cells [6]
  rate of life prolongation against the control group: 458
Sarcoma 180 cells [6]; group of 5 mice, 1 mg/mouse i.p., sarcoma 180 i.p.
  mice survived 60 days: two

## CCCCCCCCOCC(COP(=O)([O-])OCC[N+](C)(C)C)OCCCCCCCC (stereo not drawn) [2,3-dioctyloxypropyl 2-trimethylammonioethyl phosphate, reference compound]
Sarcoma 180 cells [6]
  rate of life prolongation against the control group: 195

## CCCCCCCCCOCC(COCCCCCCCCC)OP(=O)([O-])OCC[N+](C)(C)C [Example 9, 1,3-Dinonyloxypropane-2-yl 2-trimethylammonioethyl phosphate]
Sarcoma 180 cells [7]; 0.33 mg/mouse three times (hour 1, day 1, day 2), 1×10^5 sarcoma 180 cells i.p., ICR mice
  life span prolonging ratio as compared with the control: 198
Sarcoma 180 cells [7]; 5 animals per group, 0.33 mg/mouse three times, sarcoma 180 i.p.
  animal survived on day 60: 1 animal
MM46 cells
  animals survived on day 60: 3 animals
Meth A cells
  growth inhibition rate of tumor: 76%
